Assays:
Test in all cases: Test C pre-/postemergence herbicide test
cocklebur = type: in vivo, Xanthium strumarium; details: for Plant response rating (0 = no effect, 100 = complete control), Cocklebur: 125 g ai/ha
Procedure, shortened: (§1)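 Pre- and postemergence application, solvent/surfactant formulation; post at 1- to 4-leaf stage (2–18 cm). Greenhouse 12–14 d. Visual rating vs controls, 0 = no effect, 100 = complete control.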

morningglory = type: in vivo, Ipomoea coccinea; design: key to Plant response rating, Morningglory: 0 = no effect, 100 = complete control; details: for Plant response rating (0 = no effect, 100 = complete control), Morningglory: 125 g ai/ha
Procedure, shortened: as §1

pigweed = type: in vivo, Amaranthus retroflexus; details: for Plant response rating (0 = no effect, 100 = complete control), Pigweed: 125 g ai/ha
Procedure, shortened: as §1

johnsongrass = type: in vivo, Sorghum halepense; details: for Plant response rating (0 = no effect, 100 = complete control), Johnsongrass: 125 g ai/ha
Procedure, shortened: as §1

velvetleaf = type: in vivo, Abutilon theophrasti; details: for Plant response rating (0 = no effect, 100 = complete control), Velvetleaf: 125 g ai/ha
Procedure, shortened: as §1

eastern black nightshade = type: in vivo, Solanum ptycanthum; details: for Plant response rating (0 = no effect, 100 = complete control), Nightshade: 125 g ai/ha
Procedure, shortened: as §1

Surinam grass = type: in vivo, Urochloa decumbens; details: for Plant response rating (0 = no effect, 100 = complete control), Surinam Grass: 125 g ai/ha
Procedure, shortened: as §1

corn = type: in vivo, Zea mays; details: for Plant response rating (0 = no effect, 100 = complete control), Corn: 125 g ai/ha
Procedure, shortened: as §1

[1] = 62 g ai/ha, preemergence, scale 0 to 100
[2] = 250 g ai/ha, scale 0-100, preemergence
[3] = 500 g ai/ha, scale 0 to 100 (0 no effect, 100 complete control), visual, 12 to 14 days, preemergence

## CCn1nc2c(c1C(=O)Nc1cc(C(=O)N(C)C)ccc1F)CCC2(C)C [Compound 352, N-[5-[(dimethylamino)carbonyl]-2-fluorophenyl]-2-ethyl-2,4,5,6-tetrahydro-6,6-dimethyl-3-cyclopentapyrazolecarboxamide]
cocklebur; preemergence
  Plant response rating (0 = no effect, 100 = complete control), Cocklebur: 0
cocklebur; Xanthium strumarium, pre-emergence, 312 h, 62 g ai/ha, preemergence, scale 0 to 100, read-out: Plant response rating, Cocklebur
  pest or weed control at 62 g/ha: 0%
cocklebur; Xanthium strumarium, pre-emergence, 312 h, 250 g ai/ha, scale 0-100, read-out: Plant response rating, Cocklebur
  pest or weed control at 250 g/ha: 0%
cocklebur; Xanthium strumarium, pre-emergence, 312 h, 500 g ai/ha, scale 0 to 100 (0 no effect, 100 complete control), visual, 12 to 14 days, read-out: Plant response rating, Cocklebur
  pest or weed control at 500 g/ha: 30%
morningglory; preemergence
  Plant response rating (0 = no effect, 100 = complete control), Morningglory: 5
morningglory; Ipomoea, pre-emergence, 62 g ai/ha, preemergence, scale 0 to 100, read-out: Plant response rating, Morningglory
  pest or weed control at 62 g/ha: 5%
morningglory; Ipomoea, pre-emergence, 250 g ai/ha, scale 0-100, read-out: Plant response rating, Morningglory
  pest or weed control at 250 g/ha: 40%
morningglory; Ipomoea, pre-emergence, 500 g ai/ha, scale 0 to 100 (0 no effect, 100 complete control), visual, 12 to 14 days, read-out: Plant response rating, Morningglory
  pest or weed control at 500 g/ha: 60%
pigweed; preemergence
  Plant response rating (0 = no effect, 100 = complete control), Pigweed: 85
pigweed; Amaranthus retroflexus, pre-emergence, 62 g ai/ha, preemergence, scale 0 to 100, read-out: Plant response rating, Pigweed
  pest or weed control at 62 g/ha: 40%
pigweed; Amaranthus retroflexus, pre-emergence, 250 g ai/ha, scale 0-100, read-out: Plant response rating, Pigweed
  pest or weed control at 250 g/ha: 100%
pigweed; Amaranthus retroflexus, pre-emergence, 500 g ai/ha, scale 0 to 100 (0 no effect, 100 complete control), visual, 12 to 14 days, read-out: Plant response rating, Pigweed
  pest or weed control at 500 g/ha: 100%
johnsongrass; preemergence
  Plant response rating (0 = no effect, 100 = complete control), Johnsongrass: 90
johnsongrass; Sorghum halepense, pre-emergence, 62 g ai/ha, preemergence, scale 0 to 100, read-out: Plant response rating, Johnsongrass
  pest or weed control at 62 g/ha: 50%
johnsongrass; Sorghum halepense, pre-emergence, 250 g ai/ha, scale 0-100, read-out: Plant response rating, Johnsongrass
  pest or weed control at 250 g/ha: 90%
johnsongrass; Sorghum halepense, pre-emergence, 500 g ai/ha, scale 0 to 100 (0 no effect, 100 complete control), visual, 12 to 14 days, read-out: Plant response rating, Johnsongrass
  pest or weed control at 500 g/ha: 100%
velvetleaf; preemergence
  Plant response rating (0 = no effect, 100 = complete control), Velvetleaf: 5
velvetleaf; Abutilon theophrasti, pre-emergence, 62 g ai/ha, preemergence, scale 0 to 100, read-out: Plant response rating, Velvetleaf
  pest or weed control at 62 g/ha: 0%
velvetleaf; Abutilon theophrasti, pre-emergence, 250 g ai/ha, scale 0-100, read-out: Plant response rating, Velvetleaf
  pest or weed control at 250 g/ha: 70%
velvetleaf; Abutilon theophrasti, pre-emergence, 500 g ai/ha, scale 0 to 100 (0 no effect, 100 complete control), visual, 12 to 14 days, read-out: Plant response rating, Velvetleaf
  pest or weed control at 500 g/ha: 100%
Eastern black nightshade; preemergence
  Plant response rating (0 = no effect, 100 = complete control), Nightshade: 0
Eastern black nightshade; pre-emergence, 62 g ai/ha, preemergence, scale 0 to 100, read-out: Plant response rating, Nightshade
  pest or weed control at 62 g/ha: 0%
Eastern black nightshade; pre-emergence, 250 g ai/ha, scale 0-100, read-out: Plant response rating, Nightshade
  pest or weed control at 250 g/ha: 50%
Eastern black nightshade; pre-emergence, 500 g ai/ha, scale 0 to 100 (0 no effect, 100 complete control), visual, 12 to 14 days, read-out: Plant response rating, Nightshade
  pest or weed control at 500 g/ha: 100%
Surinam grass; preemergence
  Plant response rating (0 = no effect, 100 = complete control), Surinam Grass: 50
Surinam grass; Urochloa decumbens, pre-emergence, 312 h, 62 g ai/ha, preemergence, scale 0 to 100, read-out: Plant response rating, Surinam Grass
  pest or weed control at 62 g/ha: 10%
Surinam grass; Urochloa decumbens, pre-emergence, 312 h, 250 g ai/ha, scale 0-100, read-out: Plant response rating, Surinam Grass
  pest or weed control at 250 g/ha: 100%
Surinam grass; Urochloa decumbens, pre-emergence, 312 h, 500 g ai/ha, scale 0 to 100 (0 no effect, 100 complete control), visual, 12 to 14 days, read-out: Plant response rating, Surinam Grass
  pest or weed control at 500 g/ha: 100%
corn; preemergence
  Plant response rating (0 = no effect, 100 = complete control), Corn: 15
corn; Zea mays, pre-emergence, 312 h, 62 g ai/ha, preemergence, scale 0 to 100
  Corn plant response rating (crop injury, 0 = no effect, 100 = complete kill) at 62 g/ha: 0%
corn; Zea mays, pre-emergence, 312 h, 250 g ai/ha, scale 0-100
  Corn plant response rating (crop injury, 0 = no effect, 100 = complete kill) at 250 g/ha: 30%
corn; Zea mays, pre-emergence, 312 h, 500 g ai/ha, scale 0 to 100 (0 no effect, 100 complete control), visual, 12 to 14 days
  Corn plant response rating (crop injury, 0 = no effect, 100 = complete kill) at 500 g/ha: 50%

## CCNC(=O)c1cccc(NC(=O)c2nn(C(C)(C)C)nc2C)c1 [Compound 392]
cocklebur; [1]
  Plant response rating, Cocklebur: 0
cocklebur; preemergence
  Plant response rating (0 = no effect, 100 = complete control), Cocklebur: 5
cocklebur; [2]
  Plant response rating, Cocklebur: 20
cocklebur; [3]
  Plant response rating, Cocklebur: 80
morningglory; [1]
  Plant response rating, Morningglory: 70
morningglory; preemergence
  Plant response rating (0 = no effect, 100 = complete control), Morningglory: 95
morningglory; [2]
  Plant response rating, Morningglory: 100
morningglory; [3]
  Plant response rating, Morningglory: 100
pigweed; [1]
  Plant response rating, Pigweed: 100
pigweed; preemergence
  Plant response rating (0 = no effect, 100 = complete control), Pigweed: 100
pigweed; [2]
  Plant response rating, Pigweed: 100
pigweed; [3]
  Plant response rating, Pigweed: 100
johnsongrass; [1]
  Plant response rating, Johnsongrass: 85
johnsongrass; preemergence
  Plant response rating (0 = no effect, 100 = complete control), Johnsongrass: 100
johnsongrass; [2]
  Plant response rating, Johnsongrass: 100
johnsongrass; [3]
  Plant response rating, Johnsongrass: 100
velvetleaf; [1]
  Plant response rating, Velvetleaf: 70
velvetleaf; preemergence
  Plant response rating (0 = no effect, 100 = complete control), Velvetleaf: 100
velvetleaf; [2]
  Plant response rating, Velvetleaf: 100
velvetleaf; [3]
  Plant response rating, Velvetleaf: 100
Eastern black nightshade; [1]
  Plant response rating, Nightshade: 90
Eastern black nightshade; preemergence
  Plant response rating (0 = no effect, 100 = complete control), Nightshade: 95
Eastern black nightshade; [2]
  Plant response rating, Nightshade: 100
Eastern black nightshade; [3]
  Plant response rating, Nightshade: 100
Surinam grass; [1]
  Plant response rating, Surinam Grass: 50
Surinam grass; preemergence
  Plant response rating (0 = no effect, 100 = complete control), Surinam Grass: 85
Surinam grass; [2]
  Plant response rating, Surinam Grass: 85
Surinam grass; [3]
  Plant response rating, Surinam Grass: 90
corn; [1]
  Plant response rating, Corn: 30
corn; preemergence
  Plant response rating (0 = no effect, 100 = complete control), Corn: 50
corn; [2]
  Plant response rating, Corn: 80
corn; [3]
  Plant response rating, Corn: 90

## CCc1nn(C(C)(C)C)nc1C(=O)Nc1cccc(C(=S)N(C)C)c1 [Compound 395]
cocklebur; [1]
  Plant response rating, Cocklebur: 0
cocklebur; preemergence
  Plant response rating (0 = no effect, 100 = complete control), Cocklebur: 15
cocklebur; [2]
  Plant response rating, Cocklebur: 80
cocklebur; [3]
  Plant response rating, Cocklebur: 85
morningglory; [1]
  Plant response rating, Morningglory: 15
morningglory; preemergence
  Plant response rating (0 = no effect, 100 = complete control), Morningglory: 80
morningglory; [2]
  Plant response rating, Morningglory: 100
morningglory; [3]
  Plant response rating, Morningglory: 100
pigweed; [1]
  Plant response rating, Pigweed: 100
pigweed; preemergence
  Plant response rating (0 = no effect, 100 = complete control), Pigweed: 100
pigweed; [2]
  Plant response rating, Pigweed: 100
pigweed; [3]
  Plant response rating, Pigweed: 100
johnsongrass; [1]
  Plant response rating, Johnsongrass: 95
johnsongrass; preemergence
  Plant response rating (0 = no effect, 100 = complete control), Johnsongrass: 100
johnsongrass; [2]
  Plant response rating, Johnsongrass: 100
johnsongrass; [3]
  Plant response rating, Johnsongrass: 100
velvetleaf; [1]
  Plant response rating, Velvetleaf: 95
velvetleaf; preemergence
  Plant response rating (0 = no effect, 100 = complete control), Velvetleaf: 100
velvetleaf; [2]
  Plant response rating, Velvetleaf: 100
velvetleaf; [3]
  Plant response rating, Velvetleaf: 100
Eastern black nightshade; [1]
  Plant response rating, Nightshade: 100
Eastern black nightshade; preemergence
  Plant response rating (0 = no effect, 100 = complete control), Nightshade: 100
Eastern black nightshade; [2]
  Plant response rating, Nightshade: 100
Eastern black nightshade; [3]
  Plant response rating, Nightshade: 100
Surinam grass; [1]
  Plant response rating, Surinam Grass: 95
Surinam grass; preemergence
  Plant response rating (0 = no effect, 100 = complete control), Surinam Grass: 100
Surinam grass; [2]
  Plant response rating, Surinam Grass: 100
Surinam grass; [3]
  Plant response rating, Surinam Grass: 100
corn; [1]
  Plant response rating, Corn: 0
corn; preemergence
  Plant response rating (0 = no effect, 100 = complete control), Corn: 45
corn; [2]
  Plant response rating, Corn: 85
corn; [3]
  Plant response rating, Corn: 90

## CCc1nn(C(C)(C)C)nc1C(=S)Nc1cccc(C(=S)N(C)C)c1 [Compound 396]
cocklebur; [1]
  Plant response rating, Cocklebur: 0
cocklebur; preemergence
  Plant response rating (0 = no effect, 100 = complete control), Cocklebur: 0
cocklebur; [2]
  Plant response rating, Cocklebur: 0
cocklebur; [3]
  Plant response rating, Cocklebur: 0
morningglory; [1]
  Plant response rating, Morningglory: 0
morningglory; preemergence
  Plant response rating (0 = no effect, 100 = complete control), Morningglory: 0
morningglory; [2]
  Plant response rating, Morningglory: 25
morningglory; [3]
  Plant response rating, Morningglory: 70
pigweed; [1]
  Plant response rating, Pigweed: 100
pigweed; preemergence
  Plant response rating (0 = no effect, 100 = complete control), Pigweed: 100
pigweed; [2]
  Plant response rating, Pigweed: 100
pigweed; [3]
  Plant response rating, Pigweed: 100
johnsongrass; [1]
  Plant response rating, Johnsongrass: 95
johnsongrass; preemergence
  Plant response rating (0 = no effect, 100 = complete control), Johnsongrass: 100
johnsongrass; [2]
  Plant response rating, Johnsongrass: 100
johnsongrass; [3]
  Plant response rating, Johnsongrass: 100
velvetleaf; [1]
  Plant response rating, Velvetleaf: 0
velvetleaf; preemergence
  Plant response rating (0 = no effect, 100 = complete control), Velvetleaf: 45
velvetleaf; [2]
  Plant response rating, Velvetleaf: 100
velvetleaf; [3]
  Plant response rating, Velvetleaf: 100
Eastern black nightshade; [1]
  Plant response rating, Nightshade: 95
Eastern black nightshade; preemergence
  Plant response rating (0 = no effect, 100 = complete control), Nightshade: 100
Eastern black nightshade; [2]
  Plant response rating, Nightshade: 100
Eastern black nightshade; [3]
  Plant response rating, Nightshade: 100
Surinam grass; [1]
  Plant response rating, Surinam Grass: 65
Surinam grass; preemergence
  Plant response rating (0 = no effect, 100 = complete control), Surinam Grass: 95
Surinam grass; [2]
  Plant response rating, Surinam Grass: 100
Surinam grass; [3]
  Plant response rating, Surinam Grass: 100
corn; [1]
  Plant response rating, Corn: 0
corn; preemergence
  Plant response rating (0 = no effect, 100 = complete control), Corn: 30
corn; [2]
  Plant response rating, Corn: 60
corn; [3]
  Plant response rating, Corn: 80
